Measurements published in ChEMBL document CHEMBL4507286 (2021).

How the values were obtained:
[1] = molecular target: Mast/stem cell growth factor receptor Kit (Homo sapiens) (UniProt P10721)
[2] = molecular target: Mu-type opioid receptor (Homo sapiens) (UniProt P35372); conditions: Compound concentration 10.0 uM
[3] = molecular target: Muscarinic acetylcholine receptor M2 (Homo sapiens) (UniProt P08172); conditions: Compound concentration 10.0 uM
[4] = molecular target: Serine/threonine-protein kinase NLK (Homo sapiens) (UniProt Q9UBE8)
[5] = molecular target: Myosin light chain kinase 2, skeletal/cardiac muscle (Homo sapiens) (UniProt Q9H1R3)
[6] = molecular target: Ephrin type-B receptor 1 (Homo sapiens) (UniProt P54762)
Sequence of Ephrin type-B receptor 1 (Homo sapiens) (P54762 whole entry): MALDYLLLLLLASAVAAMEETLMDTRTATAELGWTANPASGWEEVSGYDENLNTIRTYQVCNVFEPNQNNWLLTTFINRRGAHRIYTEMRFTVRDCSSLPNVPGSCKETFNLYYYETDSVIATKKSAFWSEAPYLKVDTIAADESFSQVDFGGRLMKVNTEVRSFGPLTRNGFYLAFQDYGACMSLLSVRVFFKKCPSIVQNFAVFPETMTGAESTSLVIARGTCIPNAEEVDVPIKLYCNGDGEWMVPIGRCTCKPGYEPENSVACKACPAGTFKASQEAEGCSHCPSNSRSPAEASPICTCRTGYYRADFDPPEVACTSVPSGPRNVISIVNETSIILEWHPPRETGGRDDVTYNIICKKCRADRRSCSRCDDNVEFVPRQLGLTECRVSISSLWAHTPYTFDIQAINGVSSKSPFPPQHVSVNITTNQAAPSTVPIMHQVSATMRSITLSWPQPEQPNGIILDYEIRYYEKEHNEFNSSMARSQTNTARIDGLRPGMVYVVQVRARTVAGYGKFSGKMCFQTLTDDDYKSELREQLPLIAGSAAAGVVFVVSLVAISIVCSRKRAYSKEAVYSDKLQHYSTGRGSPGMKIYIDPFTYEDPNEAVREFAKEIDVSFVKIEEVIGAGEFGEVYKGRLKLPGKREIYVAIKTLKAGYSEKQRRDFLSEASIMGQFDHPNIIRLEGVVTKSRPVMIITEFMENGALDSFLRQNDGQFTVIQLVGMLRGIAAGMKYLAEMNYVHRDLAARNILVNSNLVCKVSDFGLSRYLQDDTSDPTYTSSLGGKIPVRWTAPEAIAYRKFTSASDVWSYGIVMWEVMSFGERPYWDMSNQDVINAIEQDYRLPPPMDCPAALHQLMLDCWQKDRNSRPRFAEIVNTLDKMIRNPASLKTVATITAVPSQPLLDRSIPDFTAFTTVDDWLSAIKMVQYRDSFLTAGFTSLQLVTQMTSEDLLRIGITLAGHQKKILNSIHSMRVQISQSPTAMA

[7] = molecular target: Mitogen-activated protein kinase kinase kinase 6 (Homo sapiens) (UniProt O95382)
[8] = molecular target: SRSF protein kinase 1 (Homo sapiens) (UniProt Q96SB4)
[9] = molecular target: ALK tyrosine kinase receptor (Homo sapiens) (UniProt Q9UM73)
Sequence of ALK tyrosine kinase receptor (Homo sapiens) (Q9UM73 19-1620 limits assumed): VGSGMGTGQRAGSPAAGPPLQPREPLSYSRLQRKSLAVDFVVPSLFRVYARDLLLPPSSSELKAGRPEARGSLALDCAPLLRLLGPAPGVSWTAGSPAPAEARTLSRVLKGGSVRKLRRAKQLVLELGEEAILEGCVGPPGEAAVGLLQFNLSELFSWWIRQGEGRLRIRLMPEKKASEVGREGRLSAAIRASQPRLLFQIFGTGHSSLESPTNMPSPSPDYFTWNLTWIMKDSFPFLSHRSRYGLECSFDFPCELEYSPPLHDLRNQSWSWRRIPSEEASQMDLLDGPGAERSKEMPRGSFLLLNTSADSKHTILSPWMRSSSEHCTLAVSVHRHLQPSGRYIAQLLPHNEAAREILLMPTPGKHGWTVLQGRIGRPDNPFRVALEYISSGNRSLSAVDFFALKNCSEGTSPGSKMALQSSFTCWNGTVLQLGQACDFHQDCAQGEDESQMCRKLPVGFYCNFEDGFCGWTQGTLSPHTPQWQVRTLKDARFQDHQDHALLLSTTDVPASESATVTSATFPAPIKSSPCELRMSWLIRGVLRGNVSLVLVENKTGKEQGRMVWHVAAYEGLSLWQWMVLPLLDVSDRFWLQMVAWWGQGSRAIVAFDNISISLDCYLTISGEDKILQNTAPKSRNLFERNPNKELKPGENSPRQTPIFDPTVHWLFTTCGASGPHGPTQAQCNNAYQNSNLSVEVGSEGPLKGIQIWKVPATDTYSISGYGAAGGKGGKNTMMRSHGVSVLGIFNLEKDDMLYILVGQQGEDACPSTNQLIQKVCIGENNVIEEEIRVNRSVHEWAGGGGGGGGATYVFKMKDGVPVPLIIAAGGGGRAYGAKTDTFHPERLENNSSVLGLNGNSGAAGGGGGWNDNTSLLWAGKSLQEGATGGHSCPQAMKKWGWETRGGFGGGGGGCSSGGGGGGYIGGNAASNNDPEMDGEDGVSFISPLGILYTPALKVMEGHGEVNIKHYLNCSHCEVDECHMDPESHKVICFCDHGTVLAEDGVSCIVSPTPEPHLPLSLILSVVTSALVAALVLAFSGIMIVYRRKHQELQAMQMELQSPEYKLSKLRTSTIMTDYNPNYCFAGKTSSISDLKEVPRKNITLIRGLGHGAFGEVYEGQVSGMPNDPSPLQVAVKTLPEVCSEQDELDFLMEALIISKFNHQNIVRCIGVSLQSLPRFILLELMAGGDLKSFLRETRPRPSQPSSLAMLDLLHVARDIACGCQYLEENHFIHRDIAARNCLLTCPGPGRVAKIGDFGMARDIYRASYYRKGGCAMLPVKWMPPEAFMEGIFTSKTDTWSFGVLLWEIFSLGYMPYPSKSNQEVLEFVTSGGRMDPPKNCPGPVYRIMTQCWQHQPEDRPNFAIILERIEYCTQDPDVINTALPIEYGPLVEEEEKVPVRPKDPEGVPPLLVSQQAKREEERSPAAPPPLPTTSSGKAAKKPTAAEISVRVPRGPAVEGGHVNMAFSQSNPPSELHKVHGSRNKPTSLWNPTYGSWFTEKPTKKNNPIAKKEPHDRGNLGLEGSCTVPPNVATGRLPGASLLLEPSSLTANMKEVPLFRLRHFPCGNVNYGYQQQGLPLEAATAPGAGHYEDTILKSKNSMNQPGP

[10] = molecular target: Cyclin-dependent kinase 9 (Homo sapiens) (UniProt P50750)
[11] = molecular target: Rhodopsin kinase GRK1 (Homo sapiens) (UniProt Q15835)
[12] = molecular target: Receptor-interacting serine/threonine-protein kinase 4 (Homo sapiens) (UniProt P57078)
[13] = molecular target: Protein-tyrosine kinase 6 (Homo sapiens) (UniProt Q13882)
[14] = system: Mast/stem cell growth factor receptor Kit (Homo sapiens), P10721 [L576P]
[15] = system: Epidermal growth factor receptor (Homo sapiens), P00533 [UNDEFINED MUTATION]
[16] = molecular target: MAP/microtubule affinity-regulating kinase 4 (Homo sapiens) (UniProt Q96L34)
[17] = molecular target: TGF-beta receptor type-1 (Homo sapiens) (UniProt P36897)
[18] = molecular target: Serine/threonine-protein kinase pim-2 (Homo sapiens) (UniProt Q9P1W9)
[19] = molecular target: Protein kinase C theta type (Homo sapiens) (UniProt Q04759)
[20] = molecular target: cGMP-dependent protein kinase 1 (Homo sapiens) (UniProt Q13976)
[21] = molecular target: Histamine H4 receptor (Homo sapiens) (UniProt Q9H3N8); conditions: Compound concentration 10.0 uM
[22] = molecular target: Beta-3 adrenergic receptor (Homo sapiens) (UniProt P13945); conditions: Compound concentration 10.0 uM
Sequence of Beta-3 adrenergic receptor (Homo sapiens) (P13945 whole entry, looked up): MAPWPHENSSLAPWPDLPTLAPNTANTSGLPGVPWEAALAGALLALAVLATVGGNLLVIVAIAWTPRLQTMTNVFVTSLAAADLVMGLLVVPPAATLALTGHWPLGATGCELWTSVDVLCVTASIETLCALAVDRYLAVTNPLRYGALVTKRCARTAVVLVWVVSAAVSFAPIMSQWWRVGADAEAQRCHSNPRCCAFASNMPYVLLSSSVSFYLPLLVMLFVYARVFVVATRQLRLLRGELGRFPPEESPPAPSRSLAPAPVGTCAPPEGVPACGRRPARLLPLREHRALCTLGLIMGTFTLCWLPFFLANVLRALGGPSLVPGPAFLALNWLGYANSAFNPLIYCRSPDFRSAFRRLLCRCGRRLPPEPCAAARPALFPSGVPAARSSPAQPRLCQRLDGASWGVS

[23] = molecular target: RAC-beta serine/threonine-protein kinase (Homo sapiens) (UniProt P31751)
[24] = system: Phosphatidylinositol 4,5-bisphosphate 3-kinase catalytic subunit alpha isoform (Homo sapiens), P42336 [E545K]
Sequence of Phosphatidylinositol 4,5-bisphosphate 3-kinase catalytic subunit alpha isoform (Homo sapiens), P42336 [E545K] (P42336 whole entry E545K, canonical isoform): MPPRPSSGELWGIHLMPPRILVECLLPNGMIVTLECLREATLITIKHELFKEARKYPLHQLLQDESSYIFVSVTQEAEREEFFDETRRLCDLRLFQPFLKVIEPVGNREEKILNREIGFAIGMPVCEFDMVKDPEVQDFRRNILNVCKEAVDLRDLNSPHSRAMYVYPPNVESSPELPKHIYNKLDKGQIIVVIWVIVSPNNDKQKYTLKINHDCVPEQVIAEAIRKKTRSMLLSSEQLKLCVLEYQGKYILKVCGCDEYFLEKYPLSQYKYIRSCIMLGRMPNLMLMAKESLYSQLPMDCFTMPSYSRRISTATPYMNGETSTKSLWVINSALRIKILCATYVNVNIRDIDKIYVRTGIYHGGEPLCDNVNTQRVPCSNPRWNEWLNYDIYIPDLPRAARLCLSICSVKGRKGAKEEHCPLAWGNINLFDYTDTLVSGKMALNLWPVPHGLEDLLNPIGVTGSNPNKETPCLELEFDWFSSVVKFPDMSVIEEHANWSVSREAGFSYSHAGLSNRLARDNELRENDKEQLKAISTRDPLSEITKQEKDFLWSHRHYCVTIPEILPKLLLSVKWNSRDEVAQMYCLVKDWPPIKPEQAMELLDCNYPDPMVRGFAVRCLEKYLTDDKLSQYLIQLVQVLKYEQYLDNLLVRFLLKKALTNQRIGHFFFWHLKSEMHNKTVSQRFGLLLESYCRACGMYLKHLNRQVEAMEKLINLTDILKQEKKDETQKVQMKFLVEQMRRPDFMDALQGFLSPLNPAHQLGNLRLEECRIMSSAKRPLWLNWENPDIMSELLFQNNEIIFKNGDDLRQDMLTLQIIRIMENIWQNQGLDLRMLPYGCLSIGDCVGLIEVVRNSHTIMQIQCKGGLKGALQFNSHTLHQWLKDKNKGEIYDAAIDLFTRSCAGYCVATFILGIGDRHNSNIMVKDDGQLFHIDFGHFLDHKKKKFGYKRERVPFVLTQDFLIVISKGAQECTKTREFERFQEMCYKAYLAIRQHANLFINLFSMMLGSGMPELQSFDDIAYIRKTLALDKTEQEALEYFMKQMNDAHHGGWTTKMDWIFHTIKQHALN

[25] = molecular target: Cyclin-dependent kinase 3 (Homo sapiens) (UniProt Q00526)
[26] = molecular target: Bone morphogenetic protein receptor type-1B (Homo sapiens) (UniProt O00238)
[27] = molecular target: NUAK family SNF1-like kinase 2 (Homo sapiens) (UniProt Q9H093)
[28] = molecular target: Alpha-2B adrenergic receptor (Homo sapiens) (UniProt P18089); conditions: Compound concentration 10.0 uM
[29] = molecular target: Macrophage colony-stimulating factor 1 receptor (Homo sapiens) (UniProt P07333)
[30] = molecular target: Inhibitor of nuclear factor kappa-B kinase subunit epsilon (Homo sapiens) (UniProt Q14164)
[31] = molecular target: Activin receptor type-1B (Homo sapiens) (UniProt P36896)
[32] = molecular target: Atypical kinase COQ8B, mitochondrial (Homo sapiens) (UniProt Q96D53)
[33] = molecular target: Alpha-1B adrenergic receptor (Homo sapiens) (UniProt P35368); conditions: Compound concentration 10.0 uM
[34] = molecular target: RAF proto-oncogene serine/threonine-protein kinase (Homo sapiens) (UniProt P04049)
[35] = molecular target: Mitogen-activated protein kinase 4 (Homo sapiens) (UniProt P31152)
[36] = molecular target: Ribosomal protein S6 kinase beta-1 (Homo sapiens) (UniProt P23443)
[37] = molecular target: Fibroblast growth factor receptor 3 (Homo sapiens) (UniProt P22607)
Sequence of Fibroblast growth factor receptor 3 (Homo sapiens) (P22607 23-806 limits assumed): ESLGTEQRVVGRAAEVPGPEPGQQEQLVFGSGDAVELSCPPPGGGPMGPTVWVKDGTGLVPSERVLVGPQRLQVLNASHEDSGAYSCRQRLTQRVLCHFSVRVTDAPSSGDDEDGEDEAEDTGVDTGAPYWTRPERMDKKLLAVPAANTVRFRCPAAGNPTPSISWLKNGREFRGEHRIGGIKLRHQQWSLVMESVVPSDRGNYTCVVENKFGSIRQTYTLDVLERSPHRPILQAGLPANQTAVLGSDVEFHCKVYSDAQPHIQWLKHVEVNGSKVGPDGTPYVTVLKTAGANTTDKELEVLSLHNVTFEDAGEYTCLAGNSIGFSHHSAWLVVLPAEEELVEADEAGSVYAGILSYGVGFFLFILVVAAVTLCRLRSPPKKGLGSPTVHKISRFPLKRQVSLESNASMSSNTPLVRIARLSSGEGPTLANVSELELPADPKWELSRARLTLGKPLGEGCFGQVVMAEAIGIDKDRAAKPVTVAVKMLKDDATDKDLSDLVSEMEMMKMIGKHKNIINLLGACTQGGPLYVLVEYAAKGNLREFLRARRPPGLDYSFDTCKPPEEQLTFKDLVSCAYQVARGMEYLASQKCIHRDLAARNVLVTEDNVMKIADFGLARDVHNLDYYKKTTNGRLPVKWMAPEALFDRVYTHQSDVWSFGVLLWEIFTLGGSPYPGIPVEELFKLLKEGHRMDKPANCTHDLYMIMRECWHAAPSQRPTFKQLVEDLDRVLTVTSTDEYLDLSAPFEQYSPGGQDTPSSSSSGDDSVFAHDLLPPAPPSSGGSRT

[38] = molecular target: Tyrosine-protein kinase FRK (Homo sapiens) (UniProt P42685)
[39] = molecular target: 3-phosphoinositide-dependent protein kinase 1 (Homo sapiens) (UniProt O15530)
[40] = molecular target: Serine/threonine-protein kinase ULK3 (Homo sapiens) (UniProt Q6PHR2)
[41] = molecular target: Mitogen-activated protein kinase 13 (Homo sapiens) (UniProt O15264)
[42] = molecular target: 5-hydroxytryptamine receptor 2C (Homo sapiens) (UniProt P28335); conditions: Compound concentration 10.0 uM
[43] = molecular target: Serine/threonine-protein kinase 17B (Homo sapiens) (UniProt O94768)
[44] = molecular target: Mitogen-activated protein kinase kinase kinase 7 (Homo sapiens) (UniProt O43318)
[45] = system: Receptor-type tyrosine-protein kinase FLT3 (Homo sapiens), P36888 [UNDEFINED MUTATION]
[46] = Compound concentration 100.0 nM
[47] = Compound concentration 1000.0 nM

C[C@@H](NC(=O)Nc1cc2[nH]ncc2c(CO)n1)c1ccccc1 [ERKi]
inactive: residual activity [1, 46] 89.5% | inhibition [2] 6.82% | inhibition [3] -3.22% | residual activity [4, 46] 100% | residual activity [5, 46] 100% | residual activity [6, 46] 91.1% | residual activity [7, 46] 99.3% | residual activity [8, 46] 85.5% | residual activity [9, 46] 89.9% | residual activity [10, 46] 95.4% | residual activity [11, 46] 78.3% | residual activity [12, 46] 76% | residual activity [13, 46] 86.6% | residual activity [14, 46] 72.1% | residual activity [15, 46] 94.6% | residual activity [16, 46] 96% | residual activity [17, 46] 100% | residual activity [18, 46] 100% | residual activity [19, 46] 100% | residual activity [20, 46] 52.4% | inhibition [21] 35.3% | inhibition [22] 24.1% | residual activity [23, 46] 100% | residual activity [24, 46] 80.5% | residual activity [25, 46] 86.1% | residual activity [26, 46] 69.4% | residual activity [27, 46] 76% | inhibition [28] -1.5% | residual activity [29, 46] 87.3% | residual activity [30, 46] 66.7% | residual activity [31, 46] 100% | residual activity [32, 46] 86.7% | inhibition [33] -2.72% | residual activity [34, 46] 100% | residual activity [35, 46] 98.3% | residual activity [36, 46] 90% | residual activity [37, 46] 85.4% | residual activity [38, 46] 82.2% | residual activity [39, 46] 100% | residual activity [40, 46] 68.1% | residual activity [41, 46] 100% | inhibition [42] 26.3% | residual activity [43, 46] 95.8% | residual activity [44, 46] 82.6% | residual activity [45, 46] 100%

C[C@H](NC(=O)Nc1cc2[nH]ncc2c(CO)n1)c1ccccn1 [ERKi-NC]
inactive: residual activity [1, 47] 71.5% | inhibition [2] -6.59% | inhibition [3] 14.2% | residual activity [4, 47] 66.3% | residual activity [5, 47] 76.6% | residual activity [6, 47] 100% | residual activity [7, 47] 67.4% | residual activity [8, 47] 100% | residual activity [9, 47] 85.4% | residual activity [10, 47] 100% | residual activity [11, 47] 59.5% | residual activity [12, 47] 100% | residual activity [13, 47] 100% | residual activity [14, 47] 100% | residual activity [15, 47] 100% | residual activity [16, 47] 100% | residual activity [17, 47] 60.8% | residual activity [18, 47] 100% | residual activity [19, 47] 100% | residual activity [20, 47] 90.7% | inhibition [21] 41.9% | inhibition [22] 13.6% | residual activity [23, 47] 100% | residual activity [24, 47] 74.9% | residual activity [25, 47] 100% | residual activity [26, 47] 100% | residual activity [27, 47] 100% | inhibition [28] -0.465% | residual activity [29, 47] 94.8% | residual activity [30, 47] 100% | residual activity [31, 47] 76.1% | residual activity [32, 47] 99.8% | inhibition [33] 1.42% | residual activity [34, 47] 90.2% | residual activity [35, 47] 84.7% | residual activity [36, 47] 58.3% | residual activity [37, 47] 81.8% | residual activity [38, 47] 100% | residual activity [39, 47] 86.3% | residual activity [40, 47] 98.9% | residual activity [41, 47] 85% | inhibition [42] 13.6% | residual activity [43, 47] 100% | residual activity [44, 47] 100% | residual activity [45, 47] 100%
